Measurements from patent US4510136A (priority 1983, dated 1985).

Key:
[1] = tested on: Cercospora arachidicola; assay: Peanut early leafspot control on sprayed peanut seedlings (Example 84); type: in vivo; conditions: Mycosphaerella arachidis, 360 h, 100 ppm spray, day before inoculation; read-out: % Control Peanut Easly Leafspot
[2] = tested on: Venturia inaequalis; assay: Apple scab control on sprayed apple seedlings (Example 82); type: in vivo; conditions: Venturia inaequalis, 100 ppm spray, day before inoculation
[3] = tested on: Puccinia recondita var. tritici; assay: Wheat leaf rust control on sprayed wheat seedlings (Example 79); type: in vivo; conditions: Puccinia recondita, 168 h; 100 ppm spray, day before inoculation
How it was run: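 Wheat seedlings were sprayed to run-off with 100 ppm compound suspended in water with 6% acetone and 250 ppm TREM 014 surfactant. Next day they were inoculated with Puccinia recondita var. tritici spores and held 24 h at saturated humidity, 20°. Rust pustules were rated after a further 7 days in a growth room.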

[4] = tested on: Rhizoctonia solani; assay: Rice sheath blight control on sprayed rice seedlings (Example 87); type: in vivo; conditions: Rhizoctonia solani, 168 h, 100 ppm spray, day before inoculation
How it was run: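 Rice seedlings were sprayed to run-off with 100 ppm compound suspended in water with 6% acetone and 250 ppm TREM 014 surfactant. They were inoculated next day with bran plus R. solani mycelium. Sheath blight was rated after 7 days in a growth room.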

[5] = tested on: Phytophthora infestans; assay: whole plant or invertebrate; type: in vivo; conditions: Phytophthora infestans, in Solanum lycopersicum, 168 h, read-out: % Control of Tomato Late Blight, 100 ppm spray, day before inoculation
[6] = tested on: Erysiphe cichoracearum; assay: Cucumber powdery mildew control on sprayed cucumber seedlings (Example 80); type: in vivo; conditions: Golovinomyces cichoracearum, 168 h, 100 ppm spray, day before inoculation
[7] = tested on: Pyricularia oryzae; assay: whole plant or invertebrate; type: in vivo; conditions: Pyricularia oryzae, 168 h, read-out: % Control of Rice Blast, 100 ppm spray, day before inoculation
[8] = tested on: Helminthosporium maydis; assay: Southern corn leaf blight control on sprayed corn seedlings (Example 83); type: in vivo; conditions: Bipolaris maydis, 192 h, 100 ppm spray, day before inoculation
How it was run: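 Compounds in 6% acetone at 100 ppm in water with 250 ppm TREM 014 surfactant, sprayed to run-off on corn seedlings; next day inoculated with spore suspension. 24 h at saturated humidity and 20°, then 7 days in growth room before disease rating; phytotoxicity scored as growth reduction.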

[9] = tested on: Monilinia fructicola; assay: Stone fruit brown rot control on dipped canned peach halves (Example 86); conditions: 120 h, 100 ppm dip, percent growth inhibition of colonies after five days
Source text: Several compounds of the previous examples were again dissolved in acetone in an amount equal to 5% of the final volume and then suspended at a concentration of 100 ppm in purified water containing 700 ppm of the surfactant TREM 014 (polyhydric alcohol esters). Canned peach halves were dipped in this suspension for three minutes and then placed to air dry in sterile containers. Upon drying, the peach halves were inoculated with two pieces of Monilinia fructicola mycelium, causal agent of stone fruit brown rot, and incubated in the sterile containers for five days. At that time the radii of the colonies' growth were measured on each peach. […] Percent disease control (percent growth inhibition of colonies on treated peaches as compared to that of colonies on untreated peaches) is expressed in the table below.

[10] = tested on: Pythium aphanadermatum; assay: Pythium control on cotton, seed coating (Example 91); type: in vivo; conditions: 168 h, 2 gm/kg seed
Source text: Several compounds of the previous examples were incorporated into a proprietary formulation and used to coat cotton seeds at a rate of 2 gm/kg seed. After being thoroughly coated, the seeds were allowed to air dry at room temperature. The cotton seeds were then planted into soil amended with the fungus Pythium aphanadermatum, sand, and corn meal at a rate sufficient to kill most untreated seeds. The seeds were held at room temperature for 1 week, after which time disease ratings were made.

[11] = tested on: Pythium aphanadermatum; assay: Pythium control on corn, seed coating (Example 92); type: in vivo; conditions: 504 h, 2 gm/kg seed
Description: Several compounds of the previous examples were incorporated into a proprietary formulation and used to coat corn seeds at a rate of 2 gm/kg seed. After being thoroughly coated, the seeds were allowed to air dry at room temperature. The seeds were then planted into soil amended with a mixture of the fungus Pythium aphanadermatum, sand, and corn meal at a rate sufficient to kill most untreated seeds. The seeds were held at 49° F. for 2 weeks and then at 70° F. for 1 additional week. After this time disease ratings were made.

[12] = tested on: Erysiphe graminis; assay: Barley powdery mildew control on sprayed barley seedlings (Example 81); type: in vivo; conditions: Blumeria graminis, 168 h; 100 ppm spray, day before inoculation
Description: The compounds of the previous examples were again dissolved in acetone in an amount equal to 6% of the final volume and then suspended at a concentration of 100 ppm in purified water containing 250 ppm of the surfactant TREM 014 (polyhydric alcohol esters). These suspensions were sprayed to the point of run-off on barley seedlings. The following day, the plants were inoculated with a spore suspension of the fungus Erysiphe graminis, causal agent of barley powdery mildew, and incubated in growth room for 7 days. Disease ratings were then made. Treated plants from successful treatments had little or no powdery mildew in contrast to untreated plants which were covered with powdery mildew.

[13] = tested on: cucumber seedlings; assay: Phytotoxicity on cucumber seedlings (Example 80); type: in vivo; set-up: key: G = growth reduction; H = hormonal effects; conditions: 100 ppm spray
Description: The compounds of the previous example were again dissolved in acetone in an amount equal to 6% of the final volume and then suspended at a concentration of 100 ppm in purified water containing 250 ppm of the surfactant TREM 014 (polyhydric alcohol esters). These suspensions were sprayed to the point of run-off, on cucumber seedlings. The following day, the plants were inoculated with a spore suspension of the fungus Erysiphe cichoracearum, causal agent of cucumber powdery mildew, and incubated in a growth room for 7 days. Disease ratings were then made. Treated plants from successful treatments had little or no powdery mildew in contrast to untreated plants which were covered with powdery mildew. Phytotoxicity in the form of growth reduction or hormonal effects was observed on some of the plants in association with disease control.

CCCC[Si](C)(Cn1cncn1)c1ccc(-c2ccccc2)cc1 (centres unmarked) [(1,1'-Biphenyl-4-yl)butyl(methyl)(1H-1,2,4-triazol-1-ylmethyl)silane]
pest or weed control at 100 ppm [1]: 100%
pest or weed control at 100 ppm [2]: 80%
pest or weed control at 100 ppm [3]: 90%
pest or weed control at 100 ppm [4]: 80%
pest or weed control at 100 ppm [5]: 0%
pest or weed control at 100 ppm [6]: 100%
pest or weed control at 100 ppm [7]: 100%
pest or weed control at 100 ppm [8]: 50%
inhibition of growth at 100 µg/mL [9]: 0%

C[Si](C)(Cn1cncn1)c1ccc(-c2ccccc2)cc1 [(1,1'-Biphenyl-4-yl)dimethyl(1H-1,2,4-triazol-1-ylmethyl)silane]
pest or weed control at 2 g/kg seed [10]: 12%
pest or weed control at 100 ppm [1]: 100%
pest or weed control at 100 ppm [2]: 100%
pest or weed control at 100 ppm [3]: 100%
pest or weed control at 2 g/kg seed [11]: 30%
pest or weed control at 100 ppm [6]: 100%
pest or weed control at 100 ppm [8]: 90%
inhibition of growth at 100 µg/mL [9]: 100%

C[Si](C)(Cn1cnnc1)c1ccc(-c2ccccc2)cc1 [(1,1'-Biphenyl-4-yl)dimethyl(4H-1,2,4-triazol-4-ylmethyl)silane]
pest or weed control at 100 ppm [1]: 0%
pest or weed control at 100 ppm [2]: 80%
pest or weed control at 100 ppm [3]: 0%
pest or weed control at 100 ppm [4]: 0%
pest or weed control at 100 ppm [5]: 0%
pest or weed control at 100 ppm [6]: 90%
pest or weed control at 100 ppm [7]: 0%
pest or weed control at 100 ppm [8]: 100%
pest or weed control at 100 ppm [12]: 0%
inhibition of growth at 100 µg/mL [9]: 96%

C[Si](Cn1cncn1)(c1ccccc1)c1ccc(-c2ccccc2)cc1 (centres unmarked) [(1,1'-Biphenyl-4-yl)methyl(phenyl)(1H-1,2,4-triazol-1-ylmethyl)silane]
pest or weed control at 2 g/kg seed [10]: 0%
pest or weed control at 100 ppm [1]: 100%
pest or weed control at 100 ppm [2]: 100%
pest or weed control at 100 ppm [3]: 100%
pest or weed control at 100 ppm [4]: 0%
pest or weed control at 100 ppm [5]: 0%
pest or weed control at 2 g/kg seed [11]: 0%
pest or weed control at 100 ppm [6]: 100%
pest or weed control at 100 ppm [7]: 0%
pest or weed control at 100 ppm [8]: 90%

c1ccc([Si](Cn2cncn2)(c2ccccc2)c2ccccc2)cc1 [(1H-1,2,4-Triazol-1-ylmethyl)triphenylsilane]
pest or weed control at 100 ppm [1]: 0%
pest or weed control at 100 ppm [2]: 0%
pest or weed control at 100 ppm [3]: 0%
pest or weed control at 100 ppm [4]: 0%
pest or weed control at 100 ppm [5]: 0%
pest or weed control at 100 ppm [6]: 100%
pest or weed control at 100 ppm [7]: 0%
pest or weed control at 100 ppm [8]: 0%
pest or weed control at 100 ppm [12]: 100%

CCCC[Si](C)(Cn1cncn1)c1ccc(F)cc1 (centres unmarked) [Butyl(4-fluorophenyl)methyl(1H-1,2,4-triazol-1-ylmethyl)silane]
pest or weed control at 2 g/kg seed [10]: 0%
pest or weed control at 100 ppm [1]: 0%
pest or weed control at 100 ppm [2]: 100%
pest or weed control at 100 ppm [3]: 0%
pest or weed control at 100 ppm [4]: 80%
pest or weed control at 100 ppm [5]: 0%
pest or weed control at 2 g/kg seed [11]: 0%
pest or weed control at 100 ppm [6]: 100%
pest or weed control at 100 ppm [7]: 100%
pest or weed control at 100 ppm [8]: 0%
inhibition of growth at 100 µg/mL [9]: 100%

CCCC[Si](C)(CCCC)Cn1cncn1 [Dibutyl(methyl)(1H-1,2,4-triazol-1-ylmethyl)silane]
pest or weed control at 100 ppm [1]: 0%
pest or weed control at 100 ppm [2]: 0%
pest or weed control at 100 ppm [3]: 0%
pest or weed control at 100 ppm [4]: 0%
pest or weed control at 100 ppm [5]: 0%
pest or weed control at 100 ppm [6]: 0%
pest or weed control at 100 ppm [7]: 80%
pest or weed control at 100 ppm [8]: 0%
inhibition of growth at 100 µg/mL [9]: 81%

COc1ccc([Si](C)(C)Cn2cncn2)cc1 [Dimethyl(4-methoxyphenyl)(1H-1,2,4-triazol-1-ylmethyl)silane]
pest or weed control at 2 g/kg seed [10]: 0%
pest or weed control at 100 ppm [1]: 0%
pest or weed control at 100 ppm [2]: 100%
pest or weed control at 100 ppm [3]: 0%
pest or weed control at 100 ppm [4]: 0%
pest or weed control at 100 ppm [5]: 0%
pest or weed control at 100 ppm [6]: 100%
pest or weed control at 100 ppm [7]: 0%
pest or weed control at 100 ppm [8]: 90%
pest or weed control at 100 ppm [12]: 100%
inhibition of growth at 100 µg/mL [9]: 97%

C[Si](C)(Cn1cncn1)c1ccccc1 [Dimethyl(phenyl)(1H-1,2,4-triazol-1-ylmethyl)silane]
pest or weed control at 2 g/kg seed [10]: 0%
pest or weed control at 100 ppm [1]: 0%
pest or weed control at 100 ppm [2]: 0%
pest or weed control at 100 ppm [3]: 90%
pest or weed control at 100 ppm [5]: 0%
pest or weed control at 100 ppm [6]: 100%
pest or weed control at 100 ppm [7]: 0%
pest or weed control at 100 ppm [8]: 0%
inhibition of growth at 100 µg/mL [9]: 89%

CC[Si](C)(C)Cn1cncn1 [Ethyldimethyl(1H-1,2,4-triazol-1-ylmethyl)silane]
pest or weed control at 2 g/kg seed [10]: 48%
pest or weed control at 100 ppm [1]: 0%
pest or weed control at 100 ppm [2]: 0%
pest or weed control at 100 ppm [3]: 0%
pest or weed control at 100 ppm [5]: 0%
pest or weed control at 2 g/kg seed [11]: 13%
pest or weed control at 100 ppm [6]: 100%
pest or weed control at 100 ppm [7]: 0%
pest or weed control at 100 ppm [8]: 0%

C[Si](Cn1cncn1)(c1ccc(-c2ccccc2)cc1)c1ccc(-c2ccccc2)cc1 [bis(1,1'-Biphenyl-4-yl)(methyl)(1H-1,2,4-triazol-1-ylmethyl)silane]
pest or weed control at 2 g/kg seed [10]: 0%
pest or weed control at 100 ppm [1]: 80%
pest or weed control at 100 ppm [2]: 0%
pest or weed control at 100 ppm [3]: 80%
pest or weed control at 100 ppm [4]: 90%
pest or weed control at 100 ppm [5]: 0%
pest or weed control at 100 ppm [6]: 100%
pest or weed control at 100 ppm [7]: 100%
pest or weed control at 100 ppm [8]: 0%

O[Si](Cn1cncn1)(c1ccc(Cl)cc1)c1ccc(Cl)cc1 [bis(4-Chlorophenyl)hydroxy(1H-1,2,4-triazol-1-ylmethyl)silane]
Phytotoxicity on cucumber [13]: H
pest or weed control at 100 ppm [1]: 100%
pest or weed control at 100 ppm [2]: 100%
pest or weed control at 100 ppm [3]: 90%
pest or weed control at 100 ppm [4]: 0%
pest or weed control at 100 ppm [5]: 0%
pest or weed control at 100 ppm [6]: 100%
pest or weed control at 100 ppm [7]: 0%
pest or weed control at 100 ppm [8]: 90%

O[Si](Cn1cncn1)(c1ccc(F)cc1)c1ccc(F)cc1 [bis(4-Fluorophenyl)hydroxy(1H-1,2,4-triazol-1-ylmethyl)silane]
Phytotoxicity on cucumber [13]: H
pest or weed control at 100 ppm [1]: 100%
pest or weed control at 100 ppm [2]: 100%
pest or weed control at 100 ppm [3]: 90%
pest or weed control at 100 ppm [4]: 0%
pest or weed control at 100 ppm [5]: 0%
pest or weed control at 100 ppm [6]: 100%
pest or weed control at 100 ppm [7]: 0%
pest or weed control at 100 ppm [8]: 100%
